Key:
pVER-IPTG-082 = target: T1, pVER-IPTG-082 (Escherichia coli, UniProt P03023, G200A/Q209R/Q317L/R263H/S190C/V94M); experiment: In vivo IPTG dose-response of LacI-regulated eYFP expression from the pVER plasmid in E. coli grown in rich M9 medium at 37 °C, measured by flow cytometry and fitted to the Hill equation by Bayesian MCMC (posterior mean and SD).; assay type: cell-based, E. coli MG1655Δlac; settings: read-out: log_ec50 (base-10 logarithm of EC50 in μmol/L) (converted)
T1 construct: gene lacI; LacI expressed from pVER plasmid
Procedure: (§1) All reported measurements were completed using E. coli strain MG1655Δlac, in which the lactose operon of E. coli strain MG1655 (ATCC #47076) was replaced with the bleomycin resistance gene from Streptoalloteichus hindustanus (Shble).
(§2) Dose-response curves were measured with flow cytometry using E. coli MG1655Δlac transformed with variants of the pVER plasmid, described previously. The plasmid contained different variants of the lacI coding DNA sequence (CDS), as described in the text, and an expression cassette with enhanced yellow fluorescent protein (eYFP) under the control of the lactose operator (lacO). The lacI CDS was verified with Sanger sequencing for each variant.
All cultures were grown in a rich M9 media (3 g/L KH2PO4, 6.78 g/L Na2HPO4, 0.5 g/L NaCl, 1 g/L NH4Cl, 0.1 mmol/L CaCl2, 2 mmol/L MgSO4, 4% glycerol, and 20 g/L casamino acids) supplemented with 50 μg/mL kanamycin.
• Prepare first growth plate, with 450 μL rich M9 media in each well. • Pipette 50 μL of starter culture into each well in rows B-G of the plate (leaving rows A and H blank). • Use a E. coli containing a different lacI variant for each row. • Seal first growth plate with gas permeable membrane. • Incubate plate in plate reader for 12 h to 14 h. • Grow to stationary to provide a reproducible starting point for each measurement. • Prepare second growth plate with 490 μL in each well. • Dilution series of isopropyl-β-D-thiogalactopyranoside (IPTG): 11 columns of a 2-fold serial dilution gradient and one column with zero IPTG. • Ten minutes before the end of the incubation cycle for the first growth plate, move the second growth plate to a heated station set to 47°C. • Ten minutes at 47°C will pre-warm the media in the plate to 37°C. • De-seal the first growth plate (after completion of the stationary-phase incubation cycle). • Pipette 10 μL from each well in the first growth plate to the corresponding well in the second growth plate. • 50-fold dilution; using a 96-channel pipetting head. • Seal second growth plate with gas permeable membrane. • Incubate second growth plate in plate reader for 160 minutes. • Sufficient for approximately 10-fold increase in cell density or 3.3 doublings. • Prepare third growth plate with 450 μL in each well. • Same dilution series as in second growth plate. • Ten minutes before the end of the incubation cycle for the second growth plate, move the third growth plate to a heated station set to 47°C. • De-seal the second growth plate (after completion of the 160 minute incubation cycle). • Pipette 50 μL from each well in the second growth plate to the corresponding well in the third growth plate. • 10-fold dilution; using a 96-channel pipetting head. • Seal third growth plate with gas permeable membrane. • Incubate third growth plate in plate reader for 160 minutes. • Prepare flow cytometry sample plate (round-bottom 96-well plate, Falcon, 351177). • Each well in rows B-G: 195 μL 1x PBS with 170 μg/mL chloramphenicol (Fisher BioReagents, cat. #BP904-100). • Rows A and H: PBS blanks, focusing fluid blanks, and space for calibration bead sample • At the end of the incubation cycle for the third growth plate, pipette 5 μL from each well to the corresponding well in the flow cytometry sample plate.
(§3) Flow cytometry samples were measured with an Attune NxT flow cytometer equipped with a 96-well plate autosampler using a 488 nm excitation laser and a 530 nm ± 15 nm bandpass emission filter. Blank samples were measured with each batch of cell measurements, and an automated gating algorithm was used to discriminate cell events from non-cell events. Fluorescence calibration beads (Spherotech, part no. RCP-30-20A) were also measured with each batch of samples to facilitate calibration of flow cytometry data to molecules of equivalent fluorescein (MEF). […]

pVER-IPTG-WT = target: T2, pVER-IPTG-WT (Escherichia coli, UniProt P03023); experiment: as above; assay type: cell-based; settings: read-out: log_ec50 (base-10 logarithm of EC50 in μmol/L) (converted)
T2 construct: gene lacI; full-length LacI expressed from pVER plasmid; wild type
Procedure: as §1
as §2, with “variant. […]” for “variant.”
as §3

T2 sequence (P03023 whole entry): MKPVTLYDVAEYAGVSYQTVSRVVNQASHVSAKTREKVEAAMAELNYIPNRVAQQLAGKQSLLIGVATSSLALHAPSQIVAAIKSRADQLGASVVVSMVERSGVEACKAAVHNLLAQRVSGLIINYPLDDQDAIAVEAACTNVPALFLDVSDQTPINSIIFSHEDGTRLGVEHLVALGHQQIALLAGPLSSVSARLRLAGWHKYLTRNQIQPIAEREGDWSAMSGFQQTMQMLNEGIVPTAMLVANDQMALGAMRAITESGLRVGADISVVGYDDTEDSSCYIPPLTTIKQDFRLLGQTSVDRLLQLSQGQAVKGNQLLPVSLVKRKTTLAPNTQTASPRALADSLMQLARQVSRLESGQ
T1 sequence (P03023 whole entry V94M/S190C/G200A/Q209R/R263H/Q317L): as the sequence (P03023 whole entry) above, with V94M, S190C, G200A, Q209R, R263H, Q317L counted along it

For CC(C)S[C@@H]1O[C@H](CO)[C@H](O)[C@H](O)[C@H]1O [IPTG, isopropyl-β-D-thiogalactopyranoside], the EC50 (pVER-IPTG-082) was 27.8 µmol/L and the EC50 (pVER-IPTG-WT) was 119 µmol/L.

— publication PMC10057847, “Precision engineering of biological function with large-scale measurements and machine learning” (PLOS ONE, 2023)
